# Experimental data from PMC4459787 (Science (New York, N.Y.), 2014).
# Ends that are not written are not given here.
# Columns and labels:
# [1] = target: mCherry:hnRNPA2 hydrogel droplets (low complexity domain of hnRNPA2) (Homo sapiens, UniProt P22626); assay: Binding to mCherry:hnRNPA2 hydrogel droplets; conditions: GFP signal at the periphery of mCherry:hnRNPA2 hydrogel droplets; overnight incubation at 4°C
# U2OS cells [2] = assay: Cell entry and nucleolar localisation by HA immunostaining in U2OS cells; format: cell-based; conditions: 10 μM, 30 min, fixed, HA antibody staining
# human astrocytes = assay: Nucleolar localisation by HA immunostaining in human astrocytes; format: cell-based; conditions: U2OS cancer cells and human astrocytes, HA antibody and Fibrillarin staining
# EAAT2 transcript = assay: RT-PCR of EAAT2 transcript splicing in human astrocytes; format: cell-based; conditions: for aberrant EAAT2 splicing: human astrocytes exposed to toxin until clear evidence of toxicity, PCR, fig. S6B
# U2OS cells [3] = format: cell-based
# [4] = format: in vitro ADME; conditions: cells or culture medium
# [5] = test system: ribosomal RNA (45S precursor, 18S, 5.8S, 28S); assay: qPCR of rRNA synthesis and processing in peptide-treated human astrocytes; format: cell-based; conditions: 12 hours
# [6] = test system: pre-mRNA splicing (RAN GTPase, PTX3, NACA, GADD45A); format: cell-based; conditions: human astrocytes
# Sequence of mCherry:hnRNPA2 hydrogel droplets (low complexity domain of hnRNPA2) (P22626 193-353 limits assumed, one chain of several): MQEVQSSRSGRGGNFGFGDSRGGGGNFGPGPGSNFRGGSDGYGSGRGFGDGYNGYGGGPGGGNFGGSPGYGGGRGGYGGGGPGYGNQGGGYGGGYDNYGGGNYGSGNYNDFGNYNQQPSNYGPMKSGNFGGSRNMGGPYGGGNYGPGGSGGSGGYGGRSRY
compound,measurement,setting,value
green fluorescent protein [GFP],binding to hnRNPA2 hydrogel droplets,[1],did not bind
CC(C)[C@H](NC(=O)[C@H](CC(=O)O)NC(=O)[C@H](Cc1ccc(O)cc1)NC(=O)[C@@H]1CCCN1C(=O)[C@H](Cc1ccc(O)cc1)NC(=O)[C@H](CCCNC(=N)N)NC(=O)CNC(=O)[C@H](CCCNC(=N)N)NC(=O)CNC(=O)[C@H](CCCNC(=N)N)NC(=O)CNC(=O)[C@H](CCCNC(=N)N)NC(=O)CNC(=O)[C@H](CCCNC(=N)N)NC(=O)CNC(=O)[C@H](CCCNC(=N)N)NC(=O)CNC(=O)[C@H](CCCNC(=N)N)NC(=O)CNC(=O)[C@H](CCCNC(=N)N)NC(=O)CNC(=O)[C@H](CCCNC(=N)N)NC(=O)CNC(=O)[C@H](CCCNC(=N)N)NC(=O)CNC(=O)[C@H](CCCNC(=N)N)NC(=O)CNC(=O)[C@H](CCCNC(=N)N)NC(=O)CNC(=O)[C@H](CCCNC(=N)N)NC(=O)CNC(=O)[C@H](CCCNC(=N)N)NC(=O)CNC(=O)[C@H](CCCNC(=N)N)NC(=O)CNC(=O)[C@H](CCCNC(=N)N)NC(=O)CNC(=O)[C@H](CCCNC(=N)N)NC(=O)CNC(=O)[C@H](CCCNC(=N)N)NC(=O)CNC(=O)[C@H](CCCNC(=N)N)NC(=O)CNC(=O)[C@H](CCCNC(=N)N)NC(=O)CN)C(=O)N1CCC[C@H]1C(=O)N[C@@H](CC(=O)O)C(=O)N[C@@H](Cc1ccc(O)cc1)C(=O)N[C@@H](C)C(=O)O [GR20],cell entry and localisation,U2OS cells [2],"entered cells, migrated to the nucleus and bound to nucleoli"
same,nucleolar association,human astrocytes,associated prominently with nucleoli
CN[C@@H]1C[C@H]2O[C@@](C)([C@@H]1OC)n1c3ccccc3c3c4c(c5c6ccccc6n2c5c31)C(=O)NC4 [staurosporin],aberrant EAAT2 splicing,EAAT2 transcript,None of the four toxins gave evidence of aberrant splicing
COc1cccc2c1C(=O)c1c(O)c3c(c(O)c1C2=O)C[C@@](O)(C(=O)CO)C[C@@H]3O[C@H]1C[C@H](N)[C@H](O)[C@H](C)O1 [doxorubicin],aberrant EAAT2 splicing,EAAT2 transcript,None of the four toxins gave evidence of aberrant splicing
C=C1[C@@H](C)[C@H]2[C@H](Cc3ccccc3)NC(=O)[C@]23[C@H](OC(C)=O)/C=C/[C@@](C)(O)C(=O)[C@@H](C)C/C=C/[C@H]3[C@@H]1O [cytochalasin D],aberrant EAAT2 splicing,EAAT2 transcript,None of the four toxins gave evidence of aberrant splicing
PRPRPRPRPRPRPRPRPRPRPRPRPRPRPRPRPRPRPRPRYPYDVPDYA [PR20],time to half-maximal impact on cell viability,"U2OS cells [3]; 10 μM peptide, fig. S4E",roughly 36 hours
same,time to 50% cell death,"U2OS cells [3]; 30 μM dose of the peptide, fig. S4F",6 h
same,cell morphology,"U2OS cells [3]; U2OS cells, 10 μM, within 24 hours",spindle-like phenotype
same,cell morphology and viability,"U2OS cells [3]; U2OS cells, 30 μM, 24 hours",almost all cells were detached from the culture substrate and dead
same,half-life,[4],72 h
same,"attenuation of rRNA precursor, 3′ junction of 5.8S rRNA","[5]; 10 μM, qPCR",40%
same,"attenuation of rRNA precursor, third probe (5′ end of 5.8S rRNA)","[5]; 10 μM, qPCR",roughly 20%
same,"elevation of rRNA precursor, 5′ transcribed spacer primers","[5]; 10 μM, qPCR",20%
same,"immature rRNA, first junctional probe (5′ end of 18S rRNA)","[5]; 10 μM, qPCR",elevation in immature rRNA
same,"rRNA precursor, 5′ junction of 28S rRNA","[5]; 10 μM, qPCR",normal precursor levels
same,"rRNA precursor, second junctional probe (3′ end of 18S rRNA)","[5]; 10 μM, qPCR",normal levels of rRNA precursor
same,28S rRNA level,"[5]; 30 μM, qPCR",Slight reductions
same,"drop of rRNA precursor, 3′ terminus of 5.8S rRNA","[5]; 30 μM, qPCR",70%
same,reduction of the level of 5.8S rRNA,"[5]; 30 μM, qPCR relative to vehicle",70%
same,cell entry and localisation,U2OS cells [2],"entered cells, migrated to the nucleus and bound to nucleoli"
same,nucleolar association,human astrocytes,associated prominently with nucleoli
same,aberrant EAAT2 splicing (exon 9-skipped form and intron 7 retention),"EAAT2 transcript; human astrocytes, 10 or 15 μM, 36 hours, RT-PCR",appeared in a concentration-dependent manner
same,splicing of GADD45 mRNA,"[6]; 6 hours, RT-PCR",include the full intronic sequences on both sides of exon 2
same,splicing of NACA mRNA,"[6]; 6 hours, RT-PCR",contain a different 5′ UTR
same,splicing of PTX3 mRNA,"[6]; 6 hours, RT-PCR",exon 2-skipping
same,splicing of RAN GTPase mRNA,"[6]; 6 hours, RT-PCR",exon 2-skipping
same,expression of the ribosomal protein gene family,"[6]; RNA-seq, P < 2.2e-16, Kolmogorov–Smirnov test",significantly up-regulated
CC(=O)O[C@H]1C(=O)[C@@]2(C)[C@H]([C@H](OC(=O)c3ccccc3)[C@]3(O)C[C@H](OC(=O)[C@H](O)[C@@H](NC(=O)c4ccccc4)c4ccccc4)C(C)=C1C3(C)C)[C@]1(OC(C)=O)CO[C@@H]1C[C@@H]2O [taxol],aberrant EAAT2 splicing,EAAT2 transcript,None of the four toxins gave evidence of aberrant splicing
